Experimental data: patent publication US12448369B2 (Edgewise Therapeutics, Inc., priority 2023, dated 2025)

Test system: Porcine atria myofibrils (atrial myosin ATPase)
Test: Myofibril ATPase assay, porcine atria myofibrils
Format: biochemical
Settings: Y75 value (no ‡ mark); porcine atria myofibrils
Method in brief: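 Values are Y75 (concentration cutting ATPase activity to 75% of vehicle) or Y125 (raising it to 125%), taken from 4-parameter logistic fits. Rates come from NADH disappearance at 340 nm in a PK/LDH-coupled assay with porcine atria myofibrils.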

SMILES	Atrial EC25
C[C@H](NC(=O)Cc1cc2cc(F)c(F)cc2[nH]c1=O)c1cnc(C#N)cn1 [compound 1099]	7.61 µM
C[C@H](NC(=O)C1(c2cc3c(F)c(F)ccc3[nH]c2=O)CC1)c1ncc(C#N)cn1 (single isomer, unassigned) [compound 2550]	1.39 µM
C[C@H](NC(=O)Cc1cc2c(C#N)c(O)ccc2[nH]c1=O)c1ccc(F)cc1F [compound 82]	100.00 µM
Cc1c(C(F)(F)C(=O)NC(C)c2cccc(C#N)n2)c(=O)[nH]c2ccc(F)c(F)c12 (single isomer, unassigned) [Compound 2587]	5.60 µM
Cc1c(CC(=O)N[C@@H](C)c2ncc(C#N)cc2F)c(=O)[nH]c2cc(F)ccc12 [compound 1079]	0.44 µM
C[C@@H](NC(=O)Cc1cc2c(F)cc(F)cc2[nH]c1=O)c1ncc(C#N)cc1F [compound 1137]	5.32 µM
C[C@H](NC(=O)Cc1c(C2CC2)c2cc(F)ccc2[nH]c1=O)c1ncc(C#N)cn1 (single isomer, unassigned) [compound 2064]	77.71 µM
C[C@H](NC(=O)Cc1cc2c(F)cccc2[nH]c1=O)c1ccc(C#N)cn1 [compound 48]	1.55 µM
Cc1c(C(F)(F)C(=O)N[C@@H](C)c2cc(C#N)ccn2)c(=O)[nH]c2ccc(F)cc12 (single isomer, unassigned) [compound 2576]	38.95 µM
C[C@@H](NC(=O)C1(c2cc3cc(F)ccc3[nH]c2=O)CC1)c1cc(C#N)ccn1 (single isomer, unassigned) [compound 2536]	30.59 µM
Cc1c(CC(=O)N[C@@H](C)c2ccc(C#N)nn2)c(=O)[nH]c2cccc(C#N)c12 [compound 1039]	0.22 µM
Cc1c(F)ccc2[nH]c(=O)c(CC(=O)N[C@@H](C)c3ccc(C#N)cc3F)c(O)c12 [compound 20]	0.21 µM
C[C@H](NC(=O)Cc1cc2cc(F)c(F)cc2[nH]c1=O)c1ncc(C#N)cc1F (single isomer, unassigned) [compound 4]	4.38 µM
Cc1c(CC(=O)N[C@H](C)c2ncc(C#N)cn2)c(=O)[nH]c2ccc(F)c(C#N)c12 (single isomer, unassigned) [compound 2015]	0.49 µM
Cc1c(CC(=O)N[C@H](C)c2ncc(C#N)cc2F)c(=O)[nH]c2cc(F)ccc12 [compound 1078]	2.57 µM
Cc1cc(C#N)cnc1[C@@H](C)NC(=O)Cc1c(O)c2c(C)c(F)ccc2[nH]c1=O [compound 1122]	9.16 µM
Cc1c(CC(=O)N[C@@H]2COCc3cc(C#N)cnc32)c(=O)[nH]c2ccc(F)cc12 [compound 1056]	100.00 µM
C[C@@H](NC(=O)C1(c2cc3c(F)c(F)ccc3[nH]c2=O)CC1)c1ccc(C#N)cn1 (single isomer, unassigned) [compound 4809]	3.07 µM
Cc1ccc2[nH]c(=O)c(CC(=O)N[C@@H](C)c3ncc(C#N)cn3)cc2c1F (single isomer, unassigned) [compound 2014]	100.00 µM

Target: T1, Porcine ventricle myofibrils (ventricular myosin ATPase) (Sus scrofa, UniProt P79293)
T1 construct: Myofibrils from porcine cardiac muscle was isolated from the left ventricle of Yucatan minipigs; tissue Exemplar Genetics; host or cells: left ventricle of Yucatan minipigs, myofibrils prepared in house
Test: Myofibril ATPase assay, porcine ventricle myofibrils
Format: biochemical, porcine (Yucatan minipigs)
Settings: Y75 value (no ‡ mark); porcine ventricle myofibrils
Method in brief: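 Read-out: A340 kinetic, NADH consumption coupled to ADP via PK-LDH, 75 min. Yucatan minipig LV myofibrils, pCa buffer (PIPES/CaCl2/EGTA, pH 7.0). Linear-regression slope (mAU/min), vehicle = 100%, 4PL fit; Y75 or Y125 reported.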

T1 sequence (P79293 whole entry): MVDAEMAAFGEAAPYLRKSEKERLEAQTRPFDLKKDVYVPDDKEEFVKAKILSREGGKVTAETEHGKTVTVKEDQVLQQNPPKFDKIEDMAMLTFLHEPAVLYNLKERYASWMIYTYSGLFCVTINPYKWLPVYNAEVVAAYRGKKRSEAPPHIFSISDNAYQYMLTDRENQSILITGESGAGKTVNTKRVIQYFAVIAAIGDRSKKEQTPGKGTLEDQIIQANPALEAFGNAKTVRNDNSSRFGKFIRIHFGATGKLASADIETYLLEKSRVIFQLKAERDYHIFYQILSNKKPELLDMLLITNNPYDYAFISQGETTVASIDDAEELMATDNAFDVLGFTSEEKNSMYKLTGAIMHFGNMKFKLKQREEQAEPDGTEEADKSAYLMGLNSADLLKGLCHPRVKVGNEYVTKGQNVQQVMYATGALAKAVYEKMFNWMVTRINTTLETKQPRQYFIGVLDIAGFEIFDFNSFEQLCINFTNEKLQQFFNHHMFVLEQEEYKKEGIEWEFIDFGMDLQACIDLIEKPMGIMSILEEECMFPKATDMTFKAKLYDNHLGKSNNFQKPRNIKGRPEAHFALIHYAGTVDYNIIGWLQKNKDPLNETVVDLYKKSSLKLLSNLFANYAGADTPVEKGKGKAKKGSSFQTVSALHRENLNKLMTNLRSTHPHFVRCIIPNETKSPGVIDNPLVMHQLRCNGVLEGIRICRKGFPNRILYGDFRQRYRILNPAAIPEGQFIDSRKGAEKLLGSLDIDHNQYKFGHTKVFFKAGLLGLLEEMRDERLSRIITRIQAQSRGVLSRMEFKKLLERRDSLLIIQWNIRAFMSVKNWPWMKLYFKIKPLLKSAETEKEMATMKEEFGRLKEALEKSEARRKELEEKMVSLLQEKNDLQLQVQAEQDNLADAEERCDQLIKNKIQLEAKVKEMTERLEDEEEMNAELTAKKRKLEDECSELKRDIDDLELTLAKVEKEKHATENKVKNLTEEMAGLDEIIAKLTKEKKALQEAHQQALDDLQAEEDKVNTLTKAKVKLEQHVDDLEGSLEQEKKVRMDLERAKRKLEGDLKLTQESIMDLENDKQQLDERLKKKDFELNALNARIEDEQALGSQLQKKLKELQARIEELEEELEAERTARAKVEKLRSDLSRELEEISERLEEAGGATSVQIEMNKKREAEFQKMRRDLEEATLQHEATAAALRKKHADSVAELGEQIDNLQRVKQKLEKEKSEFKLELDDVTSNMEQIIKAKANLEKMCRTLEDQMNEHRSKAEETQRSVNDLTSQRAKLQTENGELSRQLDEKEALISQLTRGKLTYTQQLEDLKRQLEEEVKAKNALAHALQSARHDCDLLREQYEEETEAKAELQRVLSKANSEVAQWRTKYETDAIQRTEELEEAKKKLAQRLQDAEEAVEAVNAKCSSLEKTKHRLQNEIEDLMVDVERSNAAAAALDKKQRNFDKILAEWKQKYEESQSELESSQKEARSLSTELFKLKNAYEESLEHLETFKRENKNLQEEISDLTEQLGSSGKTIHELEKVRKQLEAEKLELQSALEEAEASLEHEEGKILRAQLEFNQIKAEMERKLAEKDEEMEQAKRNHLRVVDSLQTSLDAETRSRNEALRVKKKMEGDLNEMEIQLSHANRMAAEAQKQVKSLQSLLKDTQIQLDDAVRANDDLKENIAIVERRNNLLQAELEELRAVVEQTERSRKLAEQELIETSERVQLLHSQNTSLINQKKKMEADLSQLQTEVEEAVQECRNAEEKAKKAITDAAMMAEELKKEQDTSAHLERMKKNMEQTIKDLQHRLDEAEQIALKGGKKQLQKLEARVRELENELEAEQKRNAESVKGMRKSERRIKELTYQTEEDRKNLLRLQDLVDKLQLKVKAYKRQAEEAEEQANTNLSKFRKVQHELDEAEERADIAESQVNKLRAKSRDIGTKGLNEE

SMILES	Ventricular EC25
C[C@H](NC(=O)Cc1cc2cc(F)c(F)cc2[nH]c1=O)c1cnc(C#N)cn1 [compound 1099]	49.75 µM
C[C@H](NC(=O)C1(c2cc3c(F)c(F)ccc3[nH]c2=O)CC1)c1ncc(C#N)cn1 (single isomer, unassigned) [compound 2550]	77.93 µM
C[C@H](NC(=O)Cc1cc2c(C#N)c(O)ccc2[nH]c1=O)c1ccc(F)cc1F [compound 82]	100.00 µM
Cc1c(C(F)(F)C(=O)NC(C)c2cccc(C#N)n2)c(=O)[nH]c2ccc(F)c(F)c12 (single isomer, unassigned) [Compound 2587]	100.00 µM
Cc1c(CC(=O)N[C@@H](C)c2ncc(C#N)cc2F)c(=O)[nH]c2cc(F)ccc12 [compound 1079]	3.04 µM
C[C@@H](NC(=O)Cc1cc2c(F)cc(F)cc2[nH]c1=O)c1ncc(C#N)cc1F [compound 1137]	2.51 µM
C[C@H](NC(=O)Cc1c(C2CC2)c2cc(F)ccc2[nH]c1=O)c1ncc(C#N)cn1 (single isomer, unassigned) [compound 2064]	32.11 µM
C[C@H](NC(=O)Cc1cc2c(F)cccc2[nH]c1=O)c1ccc(C#N)cn1 [compound 48]	4.14 µM
Cc1c(C(F)(F)C(=O)N[C@@H](C)c2cc(C#N)ccn2)c(=O)[nH]c2ccc(F)cc12 (single isomer, unassigned) [compound 2576]	100.00 µM
C[C@@H](NC(=O)C1(c2cc3cc(F)ccc3[nH]c2=O)CC1)c1cc(C#N)ccn1 (single isomer, unassigned) [compound 2536]	100.00 µM
Cc1c(CC(=O)N[C@@H](C)c2ccc(C#N)nn2)c(=O)[nH]c2cccc(C#N)c12 [compound 1039]	0.67 µM
Cc1c(F)ccc2[nH]c(=O)c(CC(=O)N[C@@H](C)c3ccc(C#N)cc3F)c(O)c12 [compound 20]	0.31 µM
C[C@H](NC(=O)Cc1cc2cc(F)c(F)cc2[nH]c1=O)c1ncc(C#N)cc1F (single isomer, unassigned) [compound 4]	0.96 µM
Cc1c(CC(=O)N[C@H](C)c2ncc(C#N)cn2)c(=O)[nH]c2ccc(F)c(C#N)c12 (single isomer, unassigned) [compound 2015]	1.45 µM
Cc1c(CC(=O)N[C@H](C)c2ncc(C#N)cc2F)c(=O)[nH]c2cc(F)ccc12 [compound 1078]	2.05 µM
Cc1cc(C#N)cnc1[C@@H](C)NC(=O)Cc1c(O)c2c(C)c(F)ccc2[nH]c1=O [compound 1122]	38.45 µM
Cc1c(CC(=O)N[C@@H]2COCc3cc(C#N)cnc32)c(=O)[nH]c2ccc(F)cc12 [compound 1056]	100.00 µM
C[C@@H](NC(=O)C1(c2cc3c(F)c(F)ccc3[nH]c2=O)CC1)c1ccc(C#N)cn1 (single isomer, unassigned) [compound 4809]	31.20 µM

Same assay, conditions: ‡ Y125 value, not a Y75 value (125% activity relative to no compound); porcine ventricle myofibrils

SMILES	Ventricular EC25
Cc1ccc2[nH]c(=O)c(CC(=O)N[C@@H](C)c3ncc(C#N)cn3)cc2c1F (single isomer, unassigned) [compound 2014]	100.00‡ μM

Test system: Rabbit Psoas myofibrils (skeletal myosin ATPase)
Test: Myofibril ATPase assay, rabbit psoas (skeletal) myofibrils
Format: biochemical
Settings: Y75 value (no ‡ mark); rabbit psoas myofibrils
Method in brief: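 Myofibrils homogenized in Triton X-100 buffer were assayed in pH 7.0 PIPES with defined Ca2+/EGTA. Myosin-driven ADP formation was coupled to NADH oxidation, with depletion monitored at 340 nm. Each value is the concentration that lowers activity to 75% of vehicle or, for activators, raises it to 125%.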

SMILES	Skeletal EC25
C[C@H](NC(=O)Cc1cc2cc(F)c(F)cc2[nH]c1=O)c1cnc(C#N)cn1 [compound 1099]	4.41 µM
C[C@H](NC(=O)C1(c2cc3c(F)c(F)ccc3[nH]c2=O)CC1)c1ncc(C#N)cn1 (single isomer, unassigned) [compound 2550]	1.22 µM
C[C@H](NC(=O)Cc1cc2c(C#N)c(O)ccc2[nH]c1=O)c1ccc(F)cc1F [compound 82]	100.00 µM
Cc1c(C(F)(F)C(=O)NC(C)c2cccc(C#N)n2)c(=O)[nH]c2ccc(F)c(F)c12 (single isomer, unassigned) [Compound 2587]	5.65 µM
Cc1c(CC(=O)N[C@@H](C)c2ncc(C#N)cc2F)c(=O)[nH]c2cc(F)ccc12 [compound 1079]	0.14 µM
C[C@@H](NC(=O)Cc1cc2c(F)cc(F)cc2[nH]c1=O)c1ncc(C#N)cc1F [compound 1137]	5.34 µM
C[C@H](NC(=O)Cc1c(C2CC2)c2cc(F)ccc2[nH]c1=O)c1ncc(C#N)cn1 (single isomer, unassigned) [compound 2064]	0.26 µM
C[C@H](NC(=O)Cc1cc2c(F)cccc2[nH]c1=O)c1ccc(C#N)cn1 [compound 48]	0.23 µM
Cc1c(C(F)(F)C(=O)N[C@@H](C)c2cc(C#N)ccn2)c(=O)[nH]c2ccc(F)cc12 (single isomer, unassigned) [compound 2576]	76.36 µM
Cc1c(CC(=O)N[C@@H](C)c2ccc(C#N)nn2)c(=O)[nH]c2cccc(C#N)c12 [compound 1039]	0.08 µM
Cc1c(F)ccc2[nH]c(=O)c(CC(=O)N[C@@H](C)c3ccc(C#N)cc3F)c(O)c12 [compound 20]	0.51 µM
C[C@H](NC(=O)Cc1cc2cc(F)c(F)cc2[nH]c1=O)c1ncc(C#N)cc1F (single isomer, unassigned) [compound 4]	0.15 µM
Cc1c(CC(=O)N[C@H](C)c2ncc(C#N)cn2)c(=O)[nH]c2ccc(F)c(C#N)c12 (single isomer, unassigned) [compound 2015]	0.15 µM
Cc1c(CC(=O)N[C@H](C)c2ncc(C#N)cc2F)c(=O)[nH]c2cc(F)ccc12 [compound 1078]	2.27 µM
Cc1cc(C#N)cnc1[C@@H](C)NC(=O)Cc1c(O)c2c(C)c(F)ccc2[nH]c1=O [compound 1122]	6.95 µM
Cc1c(CC(=O)N[C@@H]2COCc3cc(C#N)cnc32)c(=O)[nH]c2ccc(F)cc12 [compound 1056]	100 µM
C[C@@H](NC(=O)C1(c2cc3c(F)c(F)ccc3[nH]c2=O)CC1)c1ccc(C#N)cn1 (single isomer, unassigned) [compound 4809]	1.34 µM
Cc1ccc2[nH]c(=O)c(CC(=O)N[C@@H](C)c3ncc(C#N)cn3)cc2c1F (single isomer, unassigned) [compound 2014]	100.00 µM

Same assay, conditions: ‡ Y125 value, not a Y75 value (125% activity relative to no compound); rabbit psoas myofibrils

SMILES	Skeletal EC25
C[C@@H](NC(=O)C1(c2cc3cc(F)ccc3[nH]c2=O)CC1)c1cc(C#N)ccn1 (single isomer, unassigned) [compound 2536]	77.37‡ μM
